From ChEMBL document CHEMBL1909046, “DrugMatrix in vitro pharmacology data”

How the values were obtained:
[1] = DRUGMATRIX: Sodium/nucleoside co-transporter radioligand binding (ligand: nitrobenzylthioinosine); assay type: cell membranes, Cavia porcellus, Dunkin-Hartley, Cerebral cortex, Membrane; settings: Not Active = under 50% inhibition at 10 µM
[2] = molecular target: T1, Alpha-2A adrenergic receptor (Homo sapiens, UniProt P08913); assay type: cell membranes, Sf9, Membrane; settings: sf9; also: in other assays of this panel Not Active means under 50% inhibition at 10 µM
T1 sequence (P08913 whole entry): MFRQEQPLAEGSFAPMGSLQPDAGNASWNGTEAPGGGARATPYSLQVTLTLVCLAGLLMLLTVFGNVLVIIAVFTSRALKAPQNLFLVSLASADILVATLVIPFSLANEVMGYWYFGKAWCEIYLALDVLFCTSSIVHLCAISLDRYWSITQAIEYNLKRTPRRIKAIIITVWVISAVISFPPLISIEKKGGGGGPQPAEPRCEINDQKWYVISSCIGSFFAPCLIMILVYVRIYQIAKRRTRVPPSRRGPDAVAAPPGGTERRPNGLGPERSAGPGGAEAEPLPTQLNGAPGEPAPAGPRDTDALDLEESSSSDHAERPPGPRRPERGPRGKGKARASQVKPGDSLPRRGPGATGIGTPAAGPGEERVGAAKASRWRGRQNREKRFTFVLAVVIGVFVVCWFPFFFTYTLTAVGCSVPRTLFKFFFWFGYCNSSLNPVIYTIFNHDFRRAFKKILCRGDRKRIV

[3] = molecular target: T2, Type-2 angiotensin II receptor (Homo sapiens, UniProt P50052); assay type: cell-based; settings: cho-k1; also: in other assays of this panel Not Active means under 50% inhibition at 10 µM
T2 sequence (P50052 whole entry): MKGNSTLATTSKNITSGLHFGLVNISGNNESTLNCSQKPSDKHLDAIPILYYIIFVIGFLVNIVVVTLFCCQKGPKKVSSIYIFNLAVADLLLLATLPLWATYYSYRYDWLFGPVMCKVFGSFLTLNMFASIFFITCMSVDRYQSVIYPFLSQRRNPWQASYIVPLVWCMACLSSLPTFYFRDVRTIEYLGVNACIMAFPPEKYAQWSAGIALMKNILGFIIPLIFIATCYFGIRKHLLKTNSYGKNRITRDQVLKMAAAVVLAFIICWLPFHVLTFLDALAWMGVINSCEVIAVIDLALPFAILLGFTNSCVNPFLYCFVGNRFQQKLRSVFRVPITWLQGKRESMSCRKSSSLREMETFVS

[4] = molecular target: Vasopressin V1a receptor (Homo sapiens, UniProt P37288); assay type: cell membranes, Membrane; settings: hek293; also: in other assays of this panel Not Active means under 50% inhibition at 10 µM
[5] = molecular target: Cytochrome P450 2C9 (Homo sapiens, UniProt P11712); settings: bti-tn-5b1-4; also: in other assays of this panel Not Active means under 50% inhibition at 10 µM
[6] = molecular target: Mu-type opioid receptor (Homo sapiens, UniProt P35372); test: DRUGMATRIX: Opiate mu (OP3, MOP) radioligand binding (ligand: [3H] Diprenorphine); assay type: cell membranes, CHO-K1, Membrane; settings: cho-k1; Not Active = under 50% inhibition at 10 µM
Chain of Mu-type opioid receptor (P35372 whole entry): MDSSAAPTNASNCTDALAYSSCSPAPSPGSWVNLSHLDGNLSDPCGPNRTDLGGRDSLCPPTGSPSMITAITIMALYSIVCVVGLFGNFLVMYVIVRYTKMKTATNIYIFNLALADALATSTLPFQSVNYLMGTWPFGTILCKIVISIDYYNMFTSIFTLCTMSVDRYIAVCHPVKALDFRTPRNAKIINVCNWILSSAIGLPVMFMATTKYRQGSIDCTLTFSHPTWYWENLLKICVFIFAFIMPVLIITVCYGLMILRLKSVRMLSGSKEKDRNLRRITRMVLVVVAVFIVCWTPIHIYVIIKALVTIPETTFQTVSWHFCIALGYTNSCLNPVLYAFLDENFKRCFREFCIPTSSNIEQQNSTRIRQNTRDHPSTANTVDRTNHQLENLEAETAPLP

Chain of Vasopressin V1a receptor (P37288 whole entry): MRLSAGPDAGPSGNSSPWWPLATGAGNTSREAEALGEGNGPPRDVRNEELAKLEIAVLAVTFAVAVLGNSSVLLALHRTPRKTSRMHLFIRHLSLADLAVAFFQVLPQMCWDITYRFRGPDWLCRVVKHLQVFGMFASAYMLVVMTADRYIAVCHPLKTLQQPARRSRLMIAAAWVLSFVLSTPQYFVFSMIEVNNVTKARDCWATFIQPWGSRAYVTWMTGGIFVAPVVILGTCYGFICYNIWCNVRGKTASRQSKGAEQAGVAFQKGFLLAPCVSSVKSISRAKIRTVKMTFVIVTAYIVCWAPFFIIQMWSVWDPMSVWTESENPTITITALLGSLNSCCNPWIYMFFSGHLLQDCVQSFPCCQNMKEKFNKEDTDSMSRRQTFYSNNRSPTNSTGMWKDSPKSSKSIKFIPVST
Chain of Cytochrome P450 2C9 (P11712 whole entry): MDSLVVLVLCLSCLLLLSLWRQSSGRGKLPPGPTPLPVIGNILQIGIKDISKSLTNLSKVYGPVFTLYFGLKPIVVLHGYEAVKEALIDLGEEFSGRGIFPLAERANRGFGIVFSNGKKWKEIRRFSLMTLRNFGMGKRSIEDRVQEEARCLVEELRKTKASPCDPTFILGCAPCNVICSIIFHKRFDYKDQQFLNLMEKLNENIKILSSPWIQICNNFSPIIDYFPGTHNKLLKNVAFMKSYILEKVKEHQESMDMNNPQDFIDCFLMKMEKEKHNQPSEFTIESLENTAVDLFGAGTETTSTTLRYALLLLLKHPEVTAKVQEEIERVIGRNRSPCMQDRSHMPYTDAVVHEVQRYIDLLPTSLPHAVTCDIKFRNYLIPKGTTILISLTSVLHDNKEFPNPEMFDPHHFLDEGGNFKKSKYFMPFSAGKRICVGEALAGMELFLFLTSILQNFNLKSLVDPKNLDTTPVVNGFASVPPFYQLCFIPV

LEAD(IV) ACETATE
Not Active: IC50 [1] | Ki [1] | IC50 [2] | Ki [2] | IC50 [3] | Ki [3] | IC50 [4] | Ki [4] | IC50 [5] | Ki [5]

CC#C[C@]1(O)CC[C@H]2[C@@H]3CCC4=CC(=O)CCC4=C3[C@@H](c3ccc(N(C)C)cc3)C[C@@]21C [MIFEPRISTONE]
Not Active: IC50 [1] | Ki [1] | IC50 [2] | IC50 [3] | IC50 [4] | IC50 [5] | Ki [5]

CN1C[C@H](CNC(=O)OCc2ccccc2)C[C@@H]2c3cccc4c3c(cn4C)C[C@H]21 [METERGOLINE]
Not Active: IC50 [1] | Ki [1] | IC50 [3] | IC50 [4] | IC50 [6] | IC50 [5] | Ki [5]

CCOC(=O)C1=C(C)NC(C)=C(C(=O)OCC)C1c1ccccc1/C=C/C(=O)OC(C)(C)C [LACIDIPINE]
Not Active: IC50 [1] | Ki [1] | IC50 [2] | IC50 [3] | IC50 [4] | IC50 [6]

C1CCN2C[C@@H]3C[C@@H](CN4CCCC[C@@H]34)[C@H]2C1 [SPARTEINE]
Not Active: IC50 [1] | Ki [1] | IC50 [2] | IC50 [3] | IC50 [4]

CC(Cl)(Cl)Cl [TRICHLOROETHANE]
Not Active: IC50 [1] | Ki [1] | IC50 [2] | IC50 [3] | IC50 [4] | IC50 [5] | Ki [5]

O=[As][O-].[Na+] [SODIUM ARSENITE]
Not Active: IC50 [1] | Ki [1] | IC50 [2] | IC50 [3] | IC50 [4] | IC50 [5] | Ki [5]

Cc1ccc(S(=O)(=O)NC(=O)NN2CCCCCC2)cc1 [TOLAZAMIDE]
Not Active: IC50 [1] | Ki [1] | IC50 [2] | IC50 [3] | IC50 [4] | IC50 [6]

Cc1cc2c(s1)Nc1ccccc1N=C2N1CCN(C)CC1 [OLANZAPINE]
Not Active: IC50 [3] | IC50 [4] | IC50 [6] | IC50 [5] | Ki [5]

CCC(C)(C)C(=O)O[C@H]1C[C@@H](C)C=C2C=C[C@H](C)[C@H](CC[C@@H]3C[C@@H](O)CC(=O)O3)[C@H]21 [SIMVASTATIN]
Not Active: IC50 [1] | Ki [1] | IC50 [2] | IC50 [3] | IC50 [4] | IC50 [6]

CN1C(=O)OC(C)(C)C1=O [TRIMETHADIONE]
Not Active: IC50 [1] | Ki [1] | IC50 [2] | IC50 [3] | IC50 [4] | IC50 [6]

C[N+]1(C)[C@@H]2C[C@@H](OC(=O)[C@H](CO)c3ccccc3)C[C@H]1[C@@H]1O[C@@H]12.[Br-] [METHSCOPOLAMINE BROMIDE]
Not Active: IC50 [1] | Ki [1] | IC50 [2] | IC50 [3] | IC50 [4] | IC50 [6]

CNCCCC12CCC(c3ccccc31)c1ccccc12 [MAPROTILINE]
Not Active: IC50 [3] | IC50 [4] | IC50 [6]

CN(C)CCC=C1c2ccccc2COc2ccccc21 [DOXEPIN]
Not Active: IC50 [3] | IC50 [4] | IC50 [6] | IC50 [5] | Ki [5]
